According to US12390505B2, “Composition for preventing or treating obesity or diabetes, comprising acanthopanax senticosus extract and garcinia cambogia extract or compound isolated therefrom” (KOREA RESEARCH INSTITUTE OF BIOSCIENCE AND BIOTECHNOLOGY, priority 2020, dated 2025):
Read-outs that look alike come from different tables or passages of the source.

Assays:
L6 myotube cells [1] = assay: Isobologram analysis of glucose absorption capacity, chiisanogenin and Ca-HCA; type: cell-based; details: Rattus norvegicus; differentiated L6 myotube cells, single compound
Description: (§1) To differentiate rat myoblast L6 cells into myotubes, it was suspended at a concentration of 1×10^4 cells/ml in MEM medium (Welgene) supplemented with 10% of Fetal Bovine Serum and 1% of antibiotic antimycotic, and then 500 μl each was inoculated into a 24-well plate and cultured to the full for 2 days. […] The differentiated myotube cells were replaced with serum-free medium before the experiment and left for 6 hours. Myotube cells were pretreated with 100 nM porcine-derived insulin and 20 μM cytochalacin B for 15 minutes, and other samples were pretreated for 30 minutes. […] After the reaction, the cells were washed twice with Krebs-Ringer buffer (20 mM Tris-HCl, 2 mM EDTA, and 0.5 mM EGTA, pH 7.4), and the cells were lysed with 0.5N NaOH and mixed with a scintillation cocktail. The intracellular radiation dose of 2-DG was measured using a liquid scintillation counter (Tri-Carb 2900TR liquid scintillation analyzer, Perkin Elmer).

3T3-L1 cells [2] = details: for Cell Viability: mouse
Description: DMEM medium (Gibco) supplemented with 10% Bovine Calf Serum and 1% Penicillin-streptomycin was used as a growth media (GM) to culture 3T3-L1 cells, which are mouse preadipocytes. The suspension was suspended at a concentration of 2×10^3 cells/ml, and 100 μl each was inoculated into a 96-well plate, and the cells were cultured to full capacity for 3 days. In order to induce fat differentiation, DMEM medium containing 10% FBS was replaced with a differentiation media (DM) supplemented with insulin, dexamethasone and 3-isobutyl-1-methylxanthine (IBMX), and cultured for 2 days. After 2 days, DMEM medium containing 10% FBS containing insulin was added to the existing medium. […] As described in the CCK-8 (Dojindo) kit for counting cells, 10 μl of CCK-8 solution was mixed with 90 μl of medium and added at 100 μl per well. After reacting for at least 30 minutes to 1 hour, absorbance was measured at 450 nm.

3T3-L1 cells [3] = assay: Triglyceride production, Adipogenesis Colorimetric Assay; type: cell-based, mouse
Description: 3T3-L1 cells, which are preadipocytes of mice, are suspended at a concentration of 2×10^4 cells/ml using Dulbecco's Modified EaDCRT media (DMEM, Gibco) containing 10% of Bovine Calf Serum as a growth media (GM), and then inoculated into 24-well plates at 1 ml each, and then adipocytes were cultured for 3 days to become confluent. In order to induce adipocyte differentiation, DMEM media containing 10% FBS was replaced with differentiation media (DM) supplemented with insulin, dexamethasone and 3-isobutyl-1-methylanthin (IBMX) and cultured for 2 days. After 2 days, DMEM media containing 10% FBS containing insulin was added to the existing medium. […] After differentiation was induced under the same conditions as above, triglyceride (TG) produced was measured using an Adipogenesis Colorimetric Assay (Biovision) kit. According to the protocol provided in the kit, after washing the cells once with PBS, 100 μl of Lipid Extract solution was added to scrape the cells, and the cells were placed at 90° C. for 30 minutes. Thereafter, the supernatant, which had turned cloudy, was left at room temperature until it became transparent, and then 50 μl of the supernatant was obtained and transferred to a 96-well plate. After adding 2 μl of lipase and reacting for 10 minutes, 50 μl of the reaction mixture containing the probe and enzyme mix was added and reacted, and the degree of color development was measured at 570 nm with a microplate meter. The concentration of triglyceride produced in the cells was determined using a standard curve for each concentration according to the triglyceride sample included in the kit.

L6 myotube cells [4] = assay: Glucose uptake (2-deoxy-D-[14C]-glucose) in muscle cells; type: cell-based, rat
Description: as §1

[5] = Example 12 HFD mice: oral glucose tolerance test; type: in vivo, mouse; details: oral once daily 10 weeks, 50 mg/kg
Description: After adapting 8-week-old male C57b1/6 J mice to the basic diet (AIN-76A diet) for 2 weeks, and consuming Diet Induced Obesity Diet Formulas (D12451) 60 kcal % HFD diet for 2 weeks from 10 weeks of age, and then the test drug was administered when the average body weight reached 28 g or more. The animal breeding room environment of the mouse was maintained in a constant temperature (25±2° C.), constant humidity (50±5%) and a 12-hour photoperiod (light on 07:00˜19:00) in which the light and shade were controlled in an SPF environment. […] The test drug was dispersed in 0.5% Carboxymethyl cellulose (CMC) and administered in a volume of 0.2 ml, and the drug was administered orally by force into the stomach using a metal Zonde for oral administration.
[…] Blood to be used for blood glucose measurement was collected from the tail vein of a mouse, and blood glucose was measured using a serum analyzer (Accutrend plus GCTL Cobas Roche, Germany).
Results obtained from various experiments are recorded as mean±standard error of mean (SEM), and significance verification is determined using the student's T-test analysis method. The data were analyzed using one-way ANOVA to determine a statistically significant variance between each group for each final point measured, and statistical significance between each group was determined using the nonparametric Mann-Whitney test and Dunnett's multiple comparison test (IBM SPSS statistics version 19.0 statistic software, Inc, IBM, USA).

PPAR-gamma mRNA = assay: Example 12 HFD mice: adipose tissue PPAR-gamma mRNA analysis; type: in vivo, mouse; details: adipose tissue of HFD mice, oral once daily for 10 weeks, chiisanogenin 50 mg/kg, Garcinia cambogia extract 200 mg/kg, combination 50 + 150 mg/kg, Met 50 mg/kg
Description: The test drug was dispersed in 0.5% Carboxymethyl cellulose (CMC) and administered in a volume of 0.2 ml, and the drug was administered orally by force into the stomach using a metal Zonde for oral administration. RNA was extracted from tissues using RNAsolB (Tel-Test) solution, and cDNA and real-time PCR analysis were performed using One-step SYBR Green PCR kit (AB science). From the prepared cDNA, a FAM probe of [NT] ID NO: 16) sequence was used to amplify PPAR-gamma mRNA, and a VIC probe of [NT] ID NO: 15) sequence was used to amplify GAPDH mRNA as an intra control. Real time quantitative PCR was performed using the Applied Biosystems 7500 Real-Time PCR system (Applied Biosystems, USA). Results obtained from various experiments are recorded as mean±standard error of mean (SEM), and significance verification is determined using the student's T-test analysis method. The data were analyzed using one-way ANOVA to determine a statistically significant variance between each group for each final point measured, and statistical significance between each group was determined using the nonparametric Mann-Whitney test and Dunnett's multiple comparison test (IBM SPSS statistics version 19.0 statistic software, Inc, IBM, USA).

[6] = Example 12 HFD mice: serum test; type: in vivo, mouse; details: serum of HFD mice, oral once daily for 10 weeks; chiisanogenin 50 mg/kg; Garcinia cambogia extract 200 mg/kg; combination 50 + 150 mg/kg; Met 50 mg/kg
Description: The test drug was dispersed in 0.5% Carboxymethyl cellulose (CMC) and administered in a volume of 0.2 ml, and the drug was administered orally by force into the stomach using a metal Zonde for oral administration. Blood was collected by cardiac puncture to conduct a blood biochemical test after the end of the final experiment, and then plasma was separated by centrifugation at 3,000 rpm and 4° C. for 15 minutes within 30 minutes after blood collection, and then stored at −74° C. for blood chemistry and ELISA analysis. The contents of total cholesterol, high-density lipoprotein (HDL), low-density lipoprotein (LDL), triglyceride, FFA, glucose, and LDH, which are indicators of lipid content, were measured using an automated biochemical analyzer (Hitachi-720, Hitachi Medical, Japan). IGF-1 and Creatine were diluted in coating buffer, coated on microwells, and left overnight at 4° C. […] 100 μl of the TMB substrate was dispensed, left in the dark for 30 minutes, treated with 50 μl of the stop solution, and absorbance was measured at a wavelength of 450 nm using an ELISA reader. Results obtained from various experiments are recorded as mean±standard error of mean (SEM), and significance verification is determined using the student's T-test analysis method. […]

3T3-L1 cells [7] = assay: Fat accumulation, Oil Red O staining; type: cell-based, mouse
Description: 3T3-L1 cells, which are preadipocytes of mice, are suspended at a concentration of 2×10^4 cells/ml using Dulbecco's Modified EaDCRT media (DMEM, Gibco) containing 10% of Bovine Calf Serum as a growth media (GM), and then inoculated into 24-well plates at 1 ml each, and then adipocytes were cultured for 3 days to become confluent. […] In order to measure lipid accumulation after inducing the adipocyte differentiation, it was measured using Oil red 0 staining analysis (Sigma-aldrich). To fix the cells, 1% formaldehyde (based on distilled water) was added and reacted at 4° C. for 1 hour, followed by washing with distilled water, and then stained with 500 μl of filtered Oil Red 0 solution at room temperature for 1 hour. Then, after washing with distilled water, 300 μl of 100% isopropyl alcohol was added to extract intracellular oil red 0, and the degree of color development was measured at 492 nm using a microplate measuring instrument.

[8] = Table 6, mixture ratio 0:10, 25 μg/mL
[9] = Mus musculus, 3T3-L1, read-out: Inhibition Rate (TG production)

O=C(O)CC(O)(C(=O)O)C(O)C(=O)O (centres unmarked) [Ca-HCA, hydroxy citric acid]
EC50 (L6 myotube cells [1]): 27.6 µM | Cytotoxicity (conclusion from Tables 3 to 5) (3T3-L1 cells [2]): not cytotoxic | Cell Viability (3T3-L1 cells [2]; 12.5 μg/mL): 113.20 ± 14.37% | Cell Viability (3T3-L1 cells [2]; 25 μg/mL): 115.37 ± 8.86% | Cell Viability (3T3-L1 cells [2]; 50 μg/mL): 86.24 ± 8.74% | Cell Viability (3T3-L1 cells [2]; 100 μg/mL): 88.65 ± 11.58% | inhibition at 25 µg/mL (3T3-L1 cells [3]; Mus musculus, 3T3-L1, Table 9, 25 μg/mL, read-out: Inhibition Rate (TG production)): 6.62 ± 0.98% | inhibition at 50 µg/mL (3T3-L1 cells [3]; Mus musculus, 3T3-L1, Table 9, 50 μg/mL, read-out: Inhibition Rate (TG production)): 11.4 ± 0.88% | TG Production Rate (% relative to positive control) (3T3-L1 cells [3]; Table 9, 25 μg/mL): 94.51 ± 0.81% | TG Production Rate (% relative to positive control) (3T3-L1 cells [3]; Table 9, 50 μg/mL): 90.54 ± 0.73% | Glucose absorption rate (%, relative to 100 nM insulin treatment as 100%) (L6 myotube cells [4]; 5 μg/mL): 5% | Glucose absorption rate (%, relative to 100 nM insulin treatment as 100%) (L6 myotube cells [4]; 30 μg/mL): 50%

C=C(C)[C@@H]1CC[C@]2(C(=O)O)CC[C@]3(C)[C@H](C[C@H]4OC(=O)C[C@@H](O)[C@]5(C)[C@@H]4[C@@]3(C)CC[C@H]5C(=C)C)[C@@H]12 [Chiisanogenin, chiisanogenin]
Inhibition Rate (OGTT) [5]: 38% | OGTT (30 min-0 min, mg/dL) ([5]; glucose 1 g/kg): 127.4 ± 13.03 mg/dL | EC50 (L6 myotube cells [1]): 23.3 µM | PPAR-γ mRNA Inhibition Rate (%) (PPAR-gamma mRNA): 49% | PPAR-γ mRNA, mean ± standard error (PPAR-gamma mRNA; real-time PCR vs GAPDH): 2.134 ± 0.39 | Cytotoxicity (conclusion from Tables 3 to 5) (3T3-L1 cells [2]): not cytotoxic | Cell Viability (3T3-L1 cells [2]; 10 μg/mL): 127.27 ± 18.60% | Cell Viability (3T3-L1 cells [2]; 12.5 μg/mL): 106.41 ± 3.40% | Cell Viability (3T3-L1 cells [2]; 50 μg/mL): 117.77 ± 9.59% | Cell Viability (3T3-L1 cells [2]; 100 μg/mL): 104.31 ± 9.72% | Creatin (mg/dL), mean ± standard error [6]: 0.635 ± 0.007 mg/dL | inhibition at 10 µg/mL (3T3-L1 cells [7]; Mus musculus, 3T3-L1, Table 7, 10 μg/mL, read-out: Inhibition Rate (fat accumulation)): 11.3 ± 1.47% | Fat Accumulation Rate (% relative to positive control) (3T3-L1 cells [7]; [8]): 87.21 ± 4.82 % | Inhibition Rate (fat accumulation) (3T3-L1 cells [7]; [8]): 22.59 ± 7.34% | Fat Accumulation Rate (% relative to positive control) (3T3-L1 cells [7]; Table 7, 10 μg/mL): 95.13 ± 5.90% | inhibition at 10 µg/mL (3T3-L1 cells [3]; [9]): 11.4 ± 5.34% | inhibition at 25 µg/mL (3T3-L1 cells [3]; [9]): 6.47 ± 0.73% | inhibition at 50 µg/mL (3T3-L1 cells [3]; [9]): 22.8 ± 0.25% | TG Production Rate (% relative to positive control) (3T3-L1 cells [3]; Table 8, 10 μg/mL): 90.84 ± 4.21% | TG Production Rate (% relative to positive control) (3T3-L1 cells [3]; Table 9, 25 μg/mL): 94.63 ± 0.61% | TG Production Rate (% relative to positive control) (3T3-L1 cells [3]; Table 9, 50 μg/mL): 81.07 ± 0.20% | Glucose absorption rate (%, relative to 100 nM insulin treatment as 100%) (L6 myotube cells [4]; 5 μg/mL): 1% | Glucose absorption rate (%, relative to 100 nM insulin treatment as 100%) (L6 myotube cells [4]; 15 μg/mL): 25%
